Measurements taken from patent publication US20240358693A1, “METHODS OF TREATING PAIN” (Aisa Pharma, Inc., priority 2023, published 2024).

Test system: participants with SSc-RP
Assay: Scleroderma Health Assessment Questionnaire (SHAQ): disability indices and visual analog scales
Assay type: in vivo, human
Details: Day 12
Excerpt: The standard, validated, patient reported outcome measures tool for SSc patients, the Scleroderma Health Assessment Questionnaire (SHAQ), will be used to assess the participant qualify of life. Details are attached in the Appendix. The participant quality of life will be scored, and a disability index calculated for each questionnaire completed by the patient at Screening and each in-clinic visit. The absolute change in participant quality of life from baseline to the end of each dosing period will be calculated similar to frequency data as before.
The SHAQ includes a Raynaud's VAS, which will be reported at screening and each in-clinic visit. The absolute change in Raynaud-VAS, assessed by the participants response to the SHAQ question ‘In the past 7 days, how much have your Raynaud's interfered with your daily activities?’ at baseline and the end of each dosing period will be calculated similar to frequency data as before.
The SHAQ is used to calculate a Disability Index to assess the participant qualify of life. The eight categories assessed by the Disability Index are 1) dressing and grooming, 2) arising, 3) eating, 4) walking, 5) hygiene, 6) reach, 7) grip, and 8) common daily activities. For each of these categories, patients report the amount of difficulty they have in performing two or three specific activities.
There are four possible responses for the Disability Index questions: • Without any difficulty=0 • With some difficulty=1 • With much difficulty=2 • Unable to do=3. • The highest score reported by the patient for any component question of the eight categories determines the score for that category. • If a component question is left blank or the response is too ambiguous to assign a score, then the score for that category is determined by the remaining completed question(s). • If all component questions are blank or if more than one answer is given, then follow up with the respondent is required. • If the respondent's mark is between the response columns, then move it to the closest one. If it's directly between the two, move it to the higher one.
Each of the disability items on the SHAQ has a companion aids/devices variable that is used to record what type(s) of assistance, if any, the participant uses for his/her usual activities. These variables (see below) are coded as follows: • 0=No assistance is needed. • 1=A special device is used by the patient in his/her usual activities. • 2=The patient usually needs help from another person. • 3=The patient usually needs BOTH a special device AND help from another person.
The scoring variables and scoring rules permit the computation of two disability indices, the Standard Disability Index and the Alternative Disability Index.
This question results in a new set of category scores that are computed by adjusting the score for each category, if necessary, based on the patient's use of an aid or device or assistance for that category. If either devices and/or help from another person are checked for a category, the score is set to “2”, unless the score is already “3” (i.e., scores of “0” or “1” are increased to “2”). For example, if the highest score for the dressing category is “1”, and the patient says they use a device for dressing, the computed category score would be “2”. The sum of the computed categories scores is then calculated and divided by the number of categories answered. This gives a score in the 0 to 3 range.
The aid and device variables are not used to calculate the alternative disability index; it is calculated by adding the scores for each of the categories and dividing by the number of categories answered. This gives a score in the 0 to 3 range.
The standard, validated, patient reported outcome measures tool for SSc patients, the SHAQ, was collected at the time points specified in the study schedules (FIG. 2 and FIGS. 4A and 4B) to assess the participant's quality of life. The SHAQ included a Raynaud's VAS that will also be reported separately.

[1] = Modified ITT, Part A, dose Cilnidipine 20 mg, or 20 mg + Tadalafil 5 mg
[2] = Pooled Cilnidipine 10 mg and Cilnidipine 10 mg + Tadalafil 5 mg (N = 9), PP Population Part A
[3] = Pooled Cilnidipine 10 mg and Cilnidipine 10 mg + Tadalafil 5 mg (N = 9), PP Population Part A, Subject 01-110 score excluded
[4] = Pooled Cilnidipine 20 mg and Cilnidipine 20 mg + Tadalafil 5 mg (N = 8), PP Population Part A

Q: With `COCCOC(=O)C1=C(C)NC(C)=C(C(=O)OC/C=C/c2ccccc2)C1c1cccc([N+](=O)[O-])c1` (centres unmarked) [Cilnidipine, cilnidipine] as the compound, how does the “SHAQ Finger Ulcers, Percent Change from Baseline, Median” value [1] read?
A: 35.29%

Q: And the “SHAQ Standard Disability Index, Change from Baseline, Mean” value [1]?
A: −0.125

Q: And the “SHAQ Standard Disability Index, Change from Baseline, Median” value [1]?
A: −0.125

Q: And the “SHAQ Standard Disability Index, Percent Change from Baseline, Mean” value [1]?
A: −50.00%

Q: What about the “SHAQ Standard Disability Index, Percent Change from Baseline, Median” value [1] of the same compound?
A: −50.00%

Q: And the “SHAQ Visual Analog Scale-Breathing Problems, Change from Baseline, Mean” value [1]?
A: −0.833

Q: And the “SHAQ Visual Analog Scale-Breathing Problems, Change from Baseline, Median” value [1]?
A: −0.800

Q: And the “SHAQ Visual Analog Scale-Breathing Problems, Percent Change from Baseline, Mean” value [1]?
A: −5.56%

Q: And the “SHAQ Visual Analog Scale-Breathing Problems, Percent Change from Baseline, Median” value [1]?
A: −66.67%

Q: And the “SHAQ Visual Analog Scale-Intestinal Problems, Change from Baseline, Mean” value [1]?
A: 0.300

Q: And the “SHAQ Visual Analog Scale-Intestinal Problems, Change from Baseline, Median” value [1]?
A: 0.300

Q: And the “SHAQ Visual Analog Scale-Intestinal Problems, Percent Change from Baseline, Mean” value [1]?
A: 35.00%

Q: And the “SHAQ Visual Analog Scale-Intestinal Problems, Percent Change from Baseline, Median” value [1]?
A: 35.00%

Q: And the “SHAQ Visual Analog Scale-Pain, Change from Baseline, Mean” value [1]?
A: −1.100

Q: What about the “SHAQ Visual Analog Scale-Pain, Change from Baseline, Median” value [1] of the same compound?
A: −0.800

Q: And the “SHAQ Visual Analog Scale-Pain, Percent Change from Baseline, Mean” value [1]?
A: −52.56%

Q: And the “SHAQ Visual Analog Scale-Pain, Percent Change from Baseline, Median” value [1]?
A: −53.33%

Q: What about the “SHAQ Visual Analog Scale-Raynaud's, Change from Baseline, Mean” value [1] of the same compound?
A: −1.267

Q: And the “SHAQ Visual Analog Scale-Raynaud's, Change from Baseline, Median” value [1]?
A: −1.100

Q: What about the “SHAQ Visual Analog Scale-Raynaud's, Percent Change from Baseline, Mean” value [1] of the same compound?
A: −48.63%

Q: And the “SHAQ Visual Analog Scale-Raynaud's, Percent Change from Baseline, Median” value [1]?
A: −44.00%

Q: What about the “SHAQ Visual Analogue Scale - Finger Ulcers, Change from Baseline, Mean” value [2] of the same compound?
A: −0.267

Q: And the “SHAQ Visual Analogue Scale - Finger Ulcers, Change from Baseline, Median” value [2]?
A: −0.100

Q: What about the “SHAQ Visual Analogue Scale - Finger Ulcers, Percent Change from Baseline, Mean” value [2] of the same compound?
A: −46.06%

Q: And the “SHAQ Visual Analogue Scale - Finger Ulcers, Percent Change from Baseline, Median” value [2]?
A: −31.94%

Q: What about the “SHAQ Visual Analogue Scale - Intestinal Problems, Change from Baseline, Mean” value [2] of the same compound?
A: −1.228

Q: And the “SHAQ Visual Analogue Scale - Intestinal Problems, Change from Baseline, Median” value [2]?
A: −0.250

Q: What about the “SHAQ Visual Analogue Scale - Intestinal Problems, Percent Change from Baseline, Mean” value [2] of the same compound?
A: −27.93%

Q: And the “SHAQ Visual Analogue Scale - Intestinal Problems, Percent Change from Baseline, Median” value [2]?
A: −54.13%

Q: What about the “SHAQ Visual Analogue Scale - Overall Disease Severity, Change from Baseline, Mean” value [2] of the same compound?
A: −0.606

Q: And the “SHAQ Visual Analogue Scale - Overall Disease Severity, Change from Baseline, Median” value [2]?
A: −0.700

Q: And the “SHAQ Visual Analogue Scale - Overall Disease Severity, Percent Change from Baseline, Mean” value [2]?
A: −24.68%

Q: And the “SHAQ Visual Analogue Scale - Overall Disease Severity, Percent Change from Baseline, Median” value [2]?
A: −30.93%

Q: What about the “SHAQ Visual Analogue Scale - Pain, Change from Baseline, Mean” value [2] of the same compound?
A: −0.633

Q: What about the “SHAQ Visual Analogue Scale - Pain, Change from Baseline, Median” value [2] of the same compound?
A: −0.700

Q: What about the “SHAQ Visual Analogue Scale - Pain, Percent Change from Baseline, Mean” value [2] of the same compound?
A: −20.07%

Q: And the “SHAQ Visual Analogue Scale - Pain, Percent Change from Baseline, Median” value [2]?
A: −21.87%

Q: What about the “SHAQ Visual Analogue Scale - Raynaud's, Change from Baseline, Mean” value [2] of the same compound?
A: −0.414

Q: And the “SHAQ Visual Analogue Scale - Raynaud's, Change from Baseline, Median” value [2]?
A: −0.100

Q: What about the “SHAQ Visual Analogue Scale - Raynaud's, Percent Change from Baseline, Mean” value [2] of the same compound?
A: −9.97%

Q: What about the “SHAQ Visual Analogue Scale - Raynaud's, Percent Change from Baseline, Median” value [2] of the same compound?
A: −4.39%

Q: What about the “SHAQ Visual Analogue Scale - Breathing Problems, Change from Baseline, Mean” value [3] of the same compound?
A: −0.175

Q: What about the “SHAQ Visual Analogue Scale - Breathing Problems, Change from Baseline, Median” value [3] of the same compound?
A: 0.000

Q: What about the “SHAQ Visual Analogue Scale - Breathing Problems, Percent Change from Baseline, Mean” value [3] of the same compound?
A: −26.05%

Q: What about the “SHAQ Visual Analogue Scale - Breathing Problems, Percent Change from Baseline, Median” value [3] of the same compound?
A: −21.33%

Q: And the “SHAQ Visual Analogue Scale - Breathing Problems, Change from Baseline, Mean” value [4]?
A: 0.225

Q: What about the “SHAQ Visual Analogue Scale - Breathing Problems, Change from Baseline, Median” value [4] of the same compound?
A: 0.150

Q: And the “SHAQ Visual Analogue Scale - Breathing Problems, Percent Change from Baseline, Mean” value [4]?
A: 93.65%

Q: And the “SHAQ Visual Analogue Scale - Breathing Problems, Percent Change from Baseline, Median” value [4]?
A: 31.58%

Q: And the “SHAQ Visual Analogue Scale - Finger Ulcers, Change from Baseline, Mean” value [4]?
A: −0.950

Q: And the “SHAQ Visual Analogue Scale - Finger Ulcers, Change from Baseline, Median” value [4]?
A: −0.050

Q: What about the “SHAQ Visual Analogue Scale - Finger Ulcers, Percent Change from Baseline, Mean” value [4] of the same compound?
A: −15.69%

Q: And the “SHAQ Visual Analogue Scale - Finger Ulcers, Percent Change from Baseline, Median” value [4]?
A: −48.04%

Q: What about the “SHAQ Visual Analogue Scale - Intestinal Problems, Change from Baseline, Mean” value [4] of the same compound?
A: 0.200

Q: And the “SHAQ Visual Analogue Scale - Intestinal Problems, Change from Baseline, Median” value [4]?
A: 0.000

Q: What about the “SHAQ Visual Analogue Scale - Intestinal Problems, Percent Change from Baseline, Mean” value [4] of the same compound?
A: −6.27%

Q: And the “SHAQ Visual Analogue Scale - Intestinal Problems, Percent Change from Baseline, Median” value [4]?
A: −29.44%

Q: What about the “SHAQ Visual Analogue Scale - Overall Disease Severity, Change from Baseline, Mean” value [4] of the same compound?
A: −1.425

Q: And the “SHAQ Visual Analogue Scale - Overall Disease Severity, Change from Baseline, Median” value [4]?
A: −1.550

Q: What about the “SHAQ Visual Analogue Scale - Overall Disease Severity, Percent Change from Baseline, Mean” value [4] of the same compound?
A: −47.98%

Q: What about the “SHAQ Visual Analogue Scale - Overall Disease Severity, Percent Change from Baseline, Median” value [4] of the same compound?
A: −48.23%

Q: And the “SHAQ Visual Analogue Scale - Pain, Change from Baseline, Mean” value [4]?
A: −0.500
